# “Also recorded” adds a separate entry of the source. Read-outs that look alike come from different tables or passages of the source. Where a SMILES comes first, the peptide text is derived from it.
# Legend:
# A. baumannii BAA-1793 = format: cell-based, Acinetobacter baumannii; details: FIG. 7
# Method: (§1) In order to determine the Minimal Bactericidal Concentration (MBC) values of the peptides, colony formation of various bacteria strains was monitored and determined after treatment with the peptides of the invention. Multi-Drug Resistant A. baumannii bacteria were cultured with or without OMN6 in increasing concentrations, as is detailed in FIG. 6 and Example 6. Immediately afterwards, samples of each experimental group were diluted to 1×10^4 to 1×10^6 as necessary, and further, the samples were plated on appropriate medium-agar plates. All the plates were incubated at 37° C. for 24-48 hours. Colonies were counted and CFU/ml in the original sample, prior to plating, were calculated and determined. An example of the plates, after incubation, is presented in FIG. 7 where the plate on the left side of the image is the CTRL sample treated with DDW and in the right side of the image increasing concentrations of OMN6 are presented, as specified therein.
# (§2) The experimental system and parameters described here were used to determine the MBC values of OMN2, OMN6, OMN7 and OMN11 on various bacteria strains with and without the supplementation of 10% FBS (Table 6 and Table 8).
# [1] = system: human primary erythrocytes; assay: Hemolysis, cell count and MCV of human primary erythrocytes; format: cell-based
# Method: Since the peptides of the invention are intended inter-alia to operate in wounds or other damaged tissue, a direct contact with patients' blood may occur. Accordingly, an experiment was conducted in order to assess whether OMN6 has cytotoxic effects on human primary erythrocytes. These cells lack any defense mechanism to protect them against damage to the plasma membrane and therefor are a standard model for evaluating cytotoxic effects on eukaryotic cells. The parameter that was measured was the ability of OMN6 to cause hemolysis, red blood cells death, in human erythrocytes. The experiments were performed on human blood samples using ABX PENTRA DF120 machine routinely used by hospital personnel to conduct such tests.
# The Mean Corpuscular Volume (MCV) of the erythrocytes is a well-accepted indication of the cells' health and membrane integrity. The experiment was conducted to assess whether OMN6, which forms pores in bacterial membranes, has the ability to damage human cells plasma-membrane. […] (Table 5).
# Table 4 and Table 5: hemolysis and Mean Corpuscular Values (MCV) of human primary erythrocytes were evaluated after treatment with OMN6.
# GFPuv E. coli = assay: GFP leakage from lysed GFPuv E. coli; format: cell-based; details: 50 μM for 30 minutes
# Method: In order to determine and evaluate the Mechanism of Action (MOA) by which the peptides achieve the remarkable antimicrobial effect they exert, the following experiments were conducted: GFPuv E. coli bacteria are a strain that upon induction expresses green fluorescent protein (GFP). The GFP fluorescence can be detected at 395/509 nm, while live bacteria can be detected via absorbance at 600 nm (OD600).
# GFPuv E. coli bacteria ubiquitously express GFP in their cytoplasm upon induction and the fluorescent protein can be detected and visualized. […]
# In another experiment, bacteria were grown and induced to express GFP. […] The supernatant (sup) from the two experiment groups CTRL and OMN6, was separated from the pellet and analyzed for the level of fluorescence units (FU) (see FIG. 4B). […] Fluorescence was detected only inside the bacteria which were concentrated in the pellet at the bottom of the tube. […] Both supernatants were probed for the presence of bacteria via absorbance at 600 nm and both supernatants were completely void of bacteria cells (data not shown). […] Thus, in the CTRL group, where the bacteria are intact, no fluorescence is detected in the sup while in the sup from the group treated with OMN6, the GFP that leaked out of the lysed cells is detected.
# E. coli ESBL BAA-198 = format: cell-based, Escherichia coli
# Method: as §1, §2
compound,measurement,setting,value
CC[C@H](C)[C@H](NC(=O)CNC(=O)[C@H](CC(=O)O)NC(=O)[C@H](CCCNC(=N)N)NC(=O)[C@@H](NC(=O)[C@H](CC(N)=O)NC(=O)[C@H](CCC(N)=O)NC(=O)CNC(=O)[C@@H](NC(=O)[C@H](CCCCN)NC(=O)[C@H](CCC(=O)O)NC(=O)[C@@H](NC(=O)[C@H](CCCCN)NC(=O)[C@H](CCCCN)NC(=O)[C@H](Cc1ccccc1)NC(=O)[C@H](CC(C)C)NC(=O)[C@H](CCCCN)NC(=O)[C@H](Cc1c[nH]c2ccccc12)NC(=O)[C@H](CCCCN)NC(=O)[C@H](CS)NC(=O)[C@@H](N)CCSC)[C@@H](C)CC)C(C)C)[C@@H](C)CC)C(=O)N[C@H](C(=O)N[C@@H](CCCCN)C(=O)N[C@@H](C)C(=O)NCC(=O)N1CCC[C@H]1C(=O)N[C@@H](C)C(=O)N[C@H](C(=O)N[C@@H](C)C(=O)N[C@H](C(=O)N[C@H](C(=O)NCC(=O)N[C@@H](CCC(N)=O)C(=O)N[C@@H](C)C(=O)N[C@H](C(=O)N[C@@H](CCC(N)=O)C(=O)N[C@H](C(=O)N[C@@H](C)C(=O)N[C@@H](CCCCN)C(=O)N[C@@H](CS)C(N)=O)[C@@H](C)CC)[C@@H](C)O)C(C)C)C(C)C)C(C)C)[C@@H](C)CC [OMN6] (H-MCKWKLFKKIEKVGQNIRDGIIKAGPAVAVVGQATQIAKC-NH2; N-terminus and C-terminus assumed),Colony formation of Multi-Drug Resistant A. baumannii after plating,A. baumannii BAA-1793; OMN6 0.62 μM and 1.25 μM,no inhibition of growth
same,Colony formation of Multi-Drug Resistant A. baumannii after plating,"A. baumannii BAA-1793; OMN6 2.5 μM, 5 μM and 10 μM",void of colonies
same,Erythrocytes Mean Corpuscular Volume (MCV),"[1]; OMN6 10 μM, 30 min",64
same,Number of live erythrocytes,"[1]; OMN6 10 μM, 30 min",1.69 cells*10^6/ml
same,Erythrocytes Mean Corpuscular Volume (MCV),"[1]; OMN6 10 μM, 60 min",64
same,Number of live erythrocytes,"[1]; OMN6 10 μM, 60 min",1.66 cells*10^6/ml
same,Erythrocytes Mean Corpuscular Volume (MCV),"[1]; OMN6 10 μM, 120 min",63
same,Number of live erythrocytes,"[1]; OMN6 10 μM, 120 min",1.68 cells*10^6/ml
same,Erythrocytes Mean Corpuscular Volume (MCV),"[1]; OMN6 10 μM, 180 min",64
same,Number of live erythrocytes,"[1]; OMN6 10 μM, 180 min",1.67 cells*10^6/ml
same,Erythrocytes Mean Corpuscular Volume (MCV),"[1]; OMN6 20 μM, 30 min",64
same,Number of live erythrocytes,"[1]; OMN6 20 μM, 30 min",1.65 cells*10^6/ml
same,Erythrocytes Mean Corpuscular Volume (MCV),"[1]; OMN6 20 μM, 60 min",64
same,Number of live erythrocytes,"[1]; OMN6 20 μM, 60 min",1.70 cells*10^6/ml
same,Erythrocytes Mean Corpuscular Volume (MCV),"[1]; OMN6 20 μM, 120 min",63
same,Number of live erythrocytes,"[1]; OMN6 20 μM, 120 min",1.71 cells*10^6/ml
same,Erythrocytes Mean Corpuscular Volume (MCV),"[1]; OMN6 20 μM, 180 min",64
same,Number of live erythrocytes,"[1]; OMN6 20 μM, 180 min",1.70 cells*10^6/ml
same,Erythrocytes Mean Corpuscular Volume (MCV),"[1]; OMN6 40 μM, 30 min",64
same,Number of live erythrocytes,"[1]; OMN6 40 μM, 30 min",1.60 cells*10^6/ml
same,Erythrocytes Mean Corpuscular Volume (MCV),"[1]; OMN6 40 μM, 60 min",64
same,Number of live erythrocytes,"[1]; OMN6 40 μM, 60 min",1.80 cells*10^6/ml
same,Erythrocytes Mean Corpuscular Volume (MCV),"[1]; OMN6 40 μM, 120 min",63
same,Number of live erythrocytes,"[1]; OMN6 40 μM, 120 min",1.77 cells*10^6/ml
same,Erythrocytes Mean Corpuscular Volume (MCV),"[1]; OMN6 40 μM, 180 min",64
same,Number of live erythrocytes,"[1]; OMN6 40 μM, 180 min",1.76 cells*10^6/ml
same,Hemolysis of human erythrocytes,[1]; human blood samples,hemolysis of cells did not occur
same,GFP leakage / lysis of bacteria,GFPuv E. coli,massive leaking of GFP; also recorded: extensive lysis
same,MBC,E. coli ESBL BAA-198,5 µM
